From patent publication US20090286791A1, “Amide Compounds” (TAKEDA PHARMACEUTICAL COMPANY LIMITED, priority 2001, published 2009)

What follows are molecules tested against T1, human DGAT1 (Homo sapiens, UniProt O75907) (assay: DGAT inhibitory activity: [14C]-triglyceride synthesis with DGAT1 high expression Sf9 microsome). Conditions: 25 μM dioleoylglycerol, 25 μM [14C]-Oleoyl-CoA, 32° C., 20 min, read-out: hDGAT1 IC50.
T1 construct: made in house; host or cells: Sf9 insect cells (baculovirus BAC-DGAT1, pFASTBAC1); microsome fraction
T1 sequence (O75907 1-488): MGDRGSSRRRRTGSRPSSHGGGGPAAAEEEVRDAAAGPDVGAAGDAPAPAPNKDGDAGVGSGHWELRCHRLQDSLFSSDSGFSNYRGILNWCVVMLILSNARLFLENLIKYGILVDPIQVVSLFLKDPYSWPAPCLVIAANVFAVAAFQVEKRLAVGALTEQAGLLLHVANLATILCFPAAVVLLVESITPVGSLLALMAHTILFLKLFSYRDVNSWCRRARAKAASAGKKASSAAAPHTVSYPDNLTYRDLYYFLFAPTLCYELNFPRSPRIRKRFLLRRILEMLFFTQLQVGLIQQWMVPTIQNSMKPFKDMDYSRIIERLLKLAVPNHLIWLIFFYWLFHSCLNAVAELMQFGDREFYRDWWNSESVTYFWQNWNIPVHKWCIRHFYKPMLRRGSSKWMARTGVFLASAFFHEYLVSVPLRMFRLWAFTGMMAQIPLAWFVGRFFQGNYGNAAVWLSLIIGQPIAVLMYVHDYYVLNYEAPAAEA
Type: biochemical
Protocol: The primer nucleotide sequence is shown below.
The PCR reaction was conducted using a KOD-plus kit (TOYOBO). The obtained PCR product was electrophoresed on agarose gel (1%), the DNA fragment amplified by PCR was recovered from the gel, and then digested with restriction enzymes EcoRI and SpeI. […] Furthermore, using BAC-TO-BAC Baculovirus Expression System (Invitrogen), recombinant baculovirus BAC-DGAT1 was prepared.
SF9 cells were sown at 1×10^6 cells/ml on Sf-900II SFM medium (1 L, Invitrogen) containing 10% fetal calf serum (Trace), 50 mg/L gentamicin (Invitrogen) and 0.1% Pluronic F-68 (Invitrogen), and shaking culture was performed using a 2 L volume Erlenmeyer flask at 27° C., 100 rpm. After culturing for 24 hrs, recombinant baculovirus BAC-DGAT1 (6.7 mL) was added, and the mixture was further cultured for 3 days. The culture medium was centrifuged at 2,000 rpm for 5 min to give virus-infected cells. The infected cells were washed with a phosphate buffered saline (Invitrogen), centrifuged under the same conditions, and the cells were preserved at −80° C. The cryopreserved cells were thawed in ice, suspended in buffer A (50 mM Tris buffer (30 mL, pH 7.4) containing 20% glycerol, 0.15 M NaCl) supplemented with Complete Protease Inhibitor (Boehringer), and ruptured 3 times with a Polytron homogenizer (Kinematica) at 20,000 rpm for 30 sec. The Sf9 microsome fractions were obtained by a conventional method and cryopreserved at −80° C. as a DGAT1 high expression Sf9 microsome.
As a DGAT1 reaction buffer, a solution having a composition of 100 mM Tris-HCl (pH 7.5), 250 mM sucrose, 150 mM MgCl2, 0.01% bovine serum albumin (BSA) was used. […] A mixture of 300 μL of chloroform:methanol (=1:2) was added to the reaction mixture to quench the reaction. The reaction mixture was sufficiently mixed and distilled water (200 μL) was added to partition the mixture between a chloroform layer (lower layer) and an aqueous layer (upper layer). […] The developed TLC plate was dried, contacted with a BAS imaging plate (manufactured by FUJIFIIM) and measured with BAS2500 (manufactured by FUJIFILM) 16 hr later to numerically show the amount of [^14C]-triglyceride (TG amount) produced during the reaction. The inhibitory rate was calculated by the following formula:
Inhibitory rate (%)=(1−(TG amount with addition of test compound−blank TG amount)/(control TG amount−blank TG amount))×100
The count of the triglyceride produced in the solution reacted without addition of the compound was used as a “control TG amount”, and the count of the triglyceride produced in the solution reacted without addition of the test compound and DGAT1 high expression Sf9 microsome was used as a “blank TG amount”.
In the case of `CCOc1ccc(C(=O)NCCNC(=O)c2cn(-c3cccc(OCC)n3)nc2C(F)(F)F)cc1` [B6, N-(2-(4-ethoxybenzamido)ethyl)-1-(6-ethoxypyridin-2-yl)-3-(trifluorometh-yl)-1H-pyrazole-4-carboxamide], the IC50 is reported as 100 to 1000 nM. `CCOc1ccc(C(=O)NC[C@@H](NC(=O)c2cn(-c3ccccc3)nc2C(F)(F)F)C(=O)OC)cc1` [C15] showed an IC50 of 100 to 1000 nM. In the case of `CN(C)CCNc1ccc(C(=O)NCCNC(=O)c2cn(-c3ccccc3)nc2C(F)(F)F)cn1` [Example A11, 6-(2-(dimethyl-amino)ethylamino)-N-(2-(1-phenyl-3-(trifluoromethyl)-1H-pyrazole-4-carboxamido)ethyl) nicotinamide], the IC50 is reported as 1000 to 10000 nM. In the case of `O=C(NCCNC(=O)c1cn(-c2ccccc2)nc1C(F)(F)F)c1ccc(-n2cccn2)nc1` [Example A12, N-(2-(1-phenyl-3-(trifluoromethyl)-1H-pyrazole-4-carboxamido)ethyl)-6-(1H-pyrazol-1-yl) nicotinamide], the IC50 is reported as less than 100 nM. `CN(C)c1ccc(C(=O)NCCNC(=O)c2cn(-c3ccccc3)nc2C(F)(F)F)cn1` [Example A15, 6-(dimethylamino)-N-(2-(1-phenyl-3-(trifluoromethyl)-1H-pyrazole-4-carboxamido)ethyl)nicotinamide] gave an IC50 of 100 to 1000 nM. For `CCCCc1ccc(C(=O)NCCNC(=O)c2cn(-c3ccccc3)nc2C(F)(F)F)nc1` [Example A24, 5-butyl-N-(2-(1-phenyl-3-(trifluoromethyl)-1H-pyrazole-4-carboxamido)ethyl)picolinamide], the IC50 was 100 to 1000 nM. In the case of `O=C(NCCNC(=O)c1cn(-c2ccccc2)nc1C(F)(F)F)c1ccc(OCCC(F)(F)F)nc1` [Example A42, N-(2-(1-phenyl-3-(trifluoromethyl)-1H-pyrazole-4-carboxamido)ethyl)-6-(3,3,3-trifluoropropoxy)nicotinamide], the IC50 is reported as less than 100 nM. For `O=C(NCCNC(=O)c1cn(-c2ccccc2)c2ccccc12)c1ccc(OCC(F)(F)F)nc1` [Example A53, 1-phenyl-N-(2-(6-(2,2,2-trifluoroethoxy)nicotinamido)ethyl)-1H-indole-3-carboxamide], the IC50 was less than 100 nM. `COc1nn(-c2ccccc2)cc1C(=O)NCCNC(=O)c1ccc(OCC(F)(F)F)nc1` [Example A55, N-(2-(3-methoxy-1-phenyl-1H-pyrazole-4-carboxamido)ethyl)-6-(2,2,2-trifluoroethoxy) nicotinamide] was tested, and the IC50 was 100 to 1000 nM. With `CN(C)c1nn(-c2ccccc2)cc1C(=O)NCCNC(=O)c1ccc(OCC(F)(F)F)nc1` [Example A58, N-(2-(3-(dimethylamino)-1-phenyl-1H-pyrazole-4-carboxamido)ethyl)-6-(2,2,2-trifluoroethoxy) nicotinamide] the IC50 was 1000 to 10000 nM. `CCCc1cc(CCC)c(C(=O)NCCNC(=O)c2cn(-c3ccccc3)nc2C(F)(F)F)cn1` [Example A76, N-(2-(1-phenyl-3-(trifluoro-methyl)-1H-pyrazole-4-carboxamido)ethyl)-4,6-di-propylnicotinamide] showed an IC50 of 100 to 1000 nM. With `O=C(NCCNC(=O)c1cn(C(=O)c2ccccc2)c2ccccc12)c1ccc(OCC(F)(F)F)nc1` [Example A82, 1-benzoyl-N-(2-(6-(2,2,2-trifluoroethoxy)nicotinamido)ethyl)-1H-indole-3-carboxamide] the IC50 was less than 100 nM. For `O=C(NCCNC(=O)c1cn(-c2ccccc2)nc1C(F)(F)F)c1ccc(S(=O)(=O)c2ccccc2)nc1` [Example A86, N-(2-(1-Phenyl-3-(trifluoromethyl)-1H-pyrazole-4-carboxamido)ethyl)-6-(phenylsulfonyl)nicotinamide], the IC50 was 100 to 1000 nM. For `N#Cc1cc(C(=O)NCCNC(=O)c2cn(-c3ccccc3)nc2C(F)(F)F)cnc1OCC(F)(F)F` [Example A87, 5-Cyano-N-(2-(1-phenyl-3-(trifluoromethyl)-1H-pyrazole-4-carboxamido)ethyl)-6-(2,2,2-trifluoroethoxy)nicotinamide], the IC50 was 100 to 1000 nM. Work on `O=C(NCCNC(=O)c1cn(-c2ccccc2)nc1C(F)(F)F)c1ccc(-c2ncon2)nc1` [Example A96, 6-(1,2,4-Oxadiazol-3-yl)-N-(2-(1-phenyl-3-(trifluoromethyl)-1H-pyrazole-4-carboxamido)ethyl)nicotinamide] yielded an IC50 of 100 to 1000 nM. `O=C(NCCNC(=O)c1cn(-c2ccccc2)nc1C(F)(F)F)c1ccc(-c2noc(C(F)(F)F)n2)nc1` [Example A98, N-(2-(1-Phenyl-3-(trifluoromethyl)-1H-pyrazole-4-carboxamido)ethyl)-6-(5-(trifluoromethyl)-1,2,4-oxadiazol-3-yl)nicotinamide] was tested, and the IC50 was less than 100 nM. `CC(=O)Nc1ccc(C(=O)NCCNC(=O)c2cn(-c3ccccc3)nc2C(F)(F)F)cn1` [Example A99, 6-Acetamido-N-(2-(1-phenyl-3-(trifluoromethyl)-1H-pyrazole-4-carboxamido)ethyl)nicotinamide] was tested, and the IC50 was 1000 to 10000 nM. For `CC(C)c1nc(-c2ccc(C(=O)NCCNC(=O)c3cn(-c4ccccc4)nc3C(F)(F)F)cn2)no1` [Example A103, 6-(5-isopropyl-1,2,4-oxadiazol-3-yl)-N-(2-(1-phenyl-3-(trifluoromethyl)-1H-pyrazole-4-carboxamido)ethyl)nicotinamide], the IC50 was less than 100 nM. With `CCOc1ccc(C(=O)NCCNC(=O)c2cn(-c3ccc4[nH]ccc4c3)nc2C(F)(F)F)cc1` [Example B1, N-(2-(4-Ethoxybenzamido)ethyl)-1-(1H-indol-5-yl)-3-(trifluoromethyl)-1H-pyrazole-4-carboxamide] the IC50 was less than 100 nM. `CCOc1ccc(C(=O)N2CCCC2CNC(=O)c2cn(-c3ccccc3)nc2C(F)(F)F)cc1` (stereo not shown) [Example C11, N-((1-(4-ethoxybenzoyl)pyrrolidin-2-yl)methyl)-1-phenyl-3-(trifluoromethyl)-1H-pyrazole-4-carboxamide] showed an IC50 of 1000 to 10000 nM. `CCOc1ccc(C(=O)NCCNC(=O)c2cc(-c3ccccc3)cc(-c3ccccc3)n2)cc1` [Example D1, N-(2-(4-Ethoxybenzamido)ethyl)-4,6-diphenylpicolinamide] showed an IC50 of 1000 to 10000 nM. `CCOc1ccc(C(=O)NCCNC(=O)c2nn(-c3ccccc3)nc2C)cc1` [Example D6, N-(2-(4-ethoxybenzamido)ethyl)-5-methyl-2-phenyl-1H-1,2,3-triazole-4-carboxamide] gave an IC50 of 1000 to 10000 nM.
